Row | melting point [°C] | Structure (SMILES)
1 | 145 to 155 | NC(=Nc1ccc(CCNC(=O)/C=C/c2ccccc2O)cc1)c1cccs1 [Example 39, (E)-N-(4-{[amino(2-thienyl)methylidene]amino}phenethyl)-3-(2-hydroxyphenyl)-2-propenamide]
2 | 196.4 to 197.6 | COc1cc(/C=C/C(=O)NCCc2ccc(N=C(N)c3cccs3)cc2)cc(OC)c1O [Example 42, (E)-N-(4-{[amino(2-thienyl)methylidene]amino}phenethyl)-3-(4-hydroxy-3,5-dimethoxyphenyl)-2-propenamide]
3 | 237.8 to 239 | CC(=O)Nc1ccc(CNCCc2ccc(N=C(N)c3cccs3)cc2)cc1 [Example 58, N-(4-{[(4-{[amino(2-thienyl)methylidene]amino}phenethyl)-amino]methyl}phenyl)acetamide]
4 | > 230 | NC(=Nc1ccc(CCNCc2ccc3cccc(O)c3n2)cc1)c1cccs1 [Example 59, N′-[4-(2-{[(8-hydroxy-2-quinolinyl)methyl]amino}ethyl)phenyl]-2-thiophenecarboximidamide]
5 | 151 to 153 | I.NC(=Nc1ccc(CCNCC=Cc2ccccc2)cc1)c1cccs1 [Example 60, N′-[4-(2-{[3-phenyl-2-propenyl]amino}ethyl)phenyl]-2-thiophenecarboximidamide hydroiodide]
6 | 174 to 176 | COc1cc(C=CCNCCc2ccc(N=C(N)c3cccs3)cc2)ccc1O.O=C(O)/C=C/C(=O)O.O=C(O)/C=C/C(=O)O [Example 61, N′-[4-(2-{[3-(4-hydroxy-3-methoxyphenyl)-2-propenyl]amino}ethyl)phenyl]-2-thiophenecarboximidamide difumarate]
7 | 182 to 184 | COc1cc(C=CCNCCc2ccc(N=C(N)c3cccs3)cc2)cc(OC)c1O.Cl.Cl [Example 62, N′-[4-(2-{[3-(4-hydroxy-3,5-dimethoxyphenyl)-2-propenyl]amino}ethyl)phenyl]-2-thiophenecarboximidamide dihydrochloride]
8 | > 230 | COc1cc(O)c(CNCCc2ccc(N=C(N)c3cccs3)cc2)c(OC)c1 [Example 64, N′-(4-{2-[(2-hydroxy-4,6-dimethoxybenzyl)amino]ethyl}phenyl)-2-thiophenecarboximidamide]

Source: US7576241B2, “Derivatives of amidines, their preparation, their use as medicaments and the pharmaceutical compositions containing them” (Ipsen Pharma S.A.S., priority 1998, dated 2009)
